This is an account of results in PubChem BioAssay (NCI).

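Interpolation was linear, between the two tested concentrations surrounding the appropriate level; five concentrations were tested over 48 hours in 96-well plates. GI50 is the concentration that inhibits growth by half. TGI: total growth inhibition.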

Holding throughout (assay): NCI anticancer screen, dose series, 48 h
For assay [1], the system named is EKVX NSCLC.
The test system of assay [2] is HCT-116 colon.
For assay [3], the system named is K-562 leukemia.
Assay [4] concerns NCI-H522 lung.
Assay [5] concerns SF-268 CNS.
The subject of assay [6] is SF-295 CNS.
Assay [7] has as its system SK-MEL-2 melanoma.
The subject of assay [8] is SW-620 colon.
Assay [9] concerns T-47D breast.
Assay [10] deals with A498 renal.

On to `O=C1c2sccc2-c2cccc3cccc1c23` (tested in a mixture with another compound), for which the TGI in [1] was 0.105 µM; in [2], greater than 100 µM; in [3], 25.8 µM; in assay [4], 57.1 µM; in assay [5], greater than 100 µM; in assay [6], 45 µM. For the same compound, the TGI was greater than 100 µM in [7], 17.2 µM in assay [8] and 28.2 µM in assay [9].

For the compound `Cn1cc(C2=C(c3cccc(OC[C@@H](O)CO)c3)C(=O)NC2=O)c2ccccc21`, the GI50 in assay [10] is 0.656 µM; in assay [2] it was greater than 15.8 µM; in assay [3] it was 17.3 µM; in assay [4], 24.8 µM; in [5], greater than 25 µM; in assay [6] it was 3.59 µM. Also, the figures for the GI50 in [7], in [8] and in assay [9] were greater than 25 µM, greater than 20.1 µM and greater than 22.9 µM, respectively. The TGI in [10] is greater than 5.77 µM; in [2] it was greater than 25 µM; in assay [3], greater than 25 µM; in assay [4], greater than 25 µM; in assay [5] it was greater than 25 µM; in assay [6], greater than 25 µM. Further, the TGI in assay [7], in assay [8] and in [9] was greater than 25 µM in each case.

On to `N#CCCN1C/C(=C/c2ccc(Cl)cc2)C(=O)/C(=C/c2ccc(Cl)cc2)C1`, for which the GI50 in assay [10] was 1.59 µM; in [2], 0.25 µM; in [3] it was 0.378 µM; in assay [4] it was 1.77 µM; in assay [5] it was 1.51 µM; in assay [7], 2.19 µM. The GI50 in assay [8] is 0.338 µM; in assay [9], 3.12 µM. For the same compound, the TGI in assay [10] was 3.11 µM; in [2] it was 0.59 µM; in assay [3], greater than 100 µM; in [4] it was 3.41 µM; in assay [5], 3.09 µM; in assay [7], 4.88 µM. In addition, the TGI came out at 1.15 µM in assay [8] and 13.8 µM in [9].

Turning to `CCCCCO/N=C\c1c2c(O)c3c(O)c(C)c4c(c3c1O)C(=O)C(C)(O/C=C\C(OC)C(C)C(OC(C)=O)C(C)C(O)C(C)C(O)C(C)/C=C\C=C(\C)C(=O)N2)O4` (stereo unspecified), the GI50 in [10] is 1.64 µM; in assay [1], 2.09 µM; in [2] it was 1.65 µM; in assay [3] it was 3.57 µM; in assay [5] it was 1.66 µM; in [6], 1.87 µM. In addition, the results for the GI50 in assay [8] and in assay [9] were 1.68 µM and 2.15 µM, respectively. In addition, the TGI is 3.16 µM in [10]; 6.95 µM in assay [1]; 3.01 µM in assay [2]; greater than 100 µM in [3]; 3.23 µM in assay [5]; 4.3 µM in assay [6]. Also, the TGI in assay [8] worked out at 3.04 µM; in assay [9], 5.33 µM.

Regarding `CCN(CC)CCCCCCNc1cc(OC)cc2cccnc12`, the GI50 in assay [1] is 13.4 µM; in [2], 1.93 µM; in assay [3], 1.74 µM; in [4], 2.17 µM; in [5], 1.72 µM; in assay [6], 11.4 µM. The GI50 in assay [7] is 17.6 µM; in assay [8], 1.79 µM; in [9] it was 17.5 µM. The TGI stood at 26.3 µM in assay [1]; 3.55 µM in assay [2]; 3.58 µM in [3]; 4.76 µM in assay [4]; 3.83 µM in assay [5]; 26.5 µM in assay [6]. The TGI was 32.6 µM in [7], 3.71 µM in [8] and 38.6 µM in assay [9].

Consider `CCCCCCNC(=O)Oc1ccc(/C(=C(\C)c2ccc(Cl)cc2)c2ccc(OCCN3CCCCC3)cc2)cc1`, for which the GI50 in assay [1] was 5.04 µM; in [2], 0.962 µM; in assay [3], 0.923 µM; in assay [4], 6.14 µM; in [5] it was 4.9 µM; in assay [6], 4.79 µM. Further, the GI50 was 6.22 µM in [7], 1.54 µM in assay [8] and 0.722 µM in assay [9]. Also, the TGI in assay [1] was 14.4 µM; in assay [2], 4.78 µM; in assay [3], 3.51 µM; in assay [4], 13 µM; in assay [5], 14 µM; in assay [6], 9.62 µM. For the same compound, the TGI was 12.8 µM in assay [7], 5.59 µM in assay [8] and 7.11 µM in [9].

In the case of `CN(CCNCc1ccccn1)CCNCc1ccccn1`, the GI50 was 1.8 µM in assay [10]; 3.01 µM in assay [1]; 2.18 µM in assay [2]; 3.58 µM in assay [3]; 3.96 µM in assay [5]; 2.23 µM in assay [6]. Besides, the results for the GI50 in assay [8] and in assay [9] were 3.18 µM and 3.43 µM, respectively. The TGI in [10] was 3.27 µM; in assay [1], 12.3 µM; in assay [2], 4.7 µM; in assay [3], greater than 100 µM; in assay [5] it was 15.4 µM; in [6], 5.69 µM. Besides, the TGI in assay [8] came out at 11.3 µM; in assay [9] it was 28 µM.

On to `CCc1cccc(C)c1NC(=O)c1sc2nc3c(cc2c1N)C(=O)CCC3`, for which the GI50 is 0.2 µM in [10]; 0.564 µM in assay [2]; 0.422 µM in [3]; 0.234 µM in assay [4]; 3.06 µM in assay [5]; 0.299 µM in assay [6]. The figures for the GI50 in [7], in assay [8] and in assay [9] were 0.365 µM, 0.4 µM and 0.665 µM, respectively. For the same compound, the TGI in assay [10] was 0.759 µM; in [2] it was greater than 100 µM; in assay [3], 22.4 µM; in [4], 3.82 µM; in assay [5] it was greater than 100 µM; in assay [6] it was greater than 100 µM. In addition, the TGI in assay [7] is 27.3 µM; in assay [8], greater than 100 µM; in assay [9], greater than 78.5 µM.

Take `COC(=O)[C@H]1CCCN1C(=O)[C@H]1CCCN1C(=O)[C@@H](Cc1c[nH]c2ccccc12)NC(=S)Nc1cc(C(F)(F)F)cc(C(F)(F)F)c1`: the GI50 is 1.67 µM in assay [10]; 1.95 µM in assay [2]; 2.4 µM in assay [3]; 1.73 µM in assay [4]; 2 µM in [5]; 1.67 µM in assay [6]. In addition, the figures for the GI50 in [7], in assay [8] and in assay [9] were 1.95 µM, 2 µM and 3.27 µM, respectively. Further, the TGI in assay [10] stood at 5.65 µM; in assay [2] it was 3.77 µM; in assay [3], 5.52 µM; in assay [4] it was 3.51 µM; in assay [5], 5.4 µM; in [6] it was 3.17 µM. Also, the TGI in assay [7] came to 3.55 µM; in assay [8], 4.62 µM; in assay [9], 16.4 µM.

`COc1cc2c(cc1OC)-c1ncc3c(OC)c(OC)c(OC)cc3c1C2`: the GI50 is 8.81 µM in assay [2]; 10.7 µM in assay [3]; 4.97 µM in assay [5]; 25.8 µM in assay [6]; 0.0541 µM in [7]; 34.2 µM in [8]. Further, the GI50 in assay [9] is 40.8 µM. Further, the TGI in [2] is 64.7 µM; in [3], greater than 100 µM; in assay [5], 16.5 µM; in assay [6] it was greater than 100 µM; in [7], 23.5 µM; in assay [8], greater than 100 µM. Moreover, the TGI in [9] was greater than 100 µM.

In the case of `O=C(Nc1cccc(-n2cc(-c3ccncc3)c(-c3cc(O)cc(Cl)c3)n2)c1)c1cc(C(F)(F)F)cc(C(F)(F)F)c1`, the GI50 in [10] is 4.75 µM; in [2], 3.23 µM; in assay [3], 3.24 µM; in assay [4], 1.6 µM; in assay [5], 6.38 µM; in assay [6], 2.37 µM. In addition, the GI50 in assay [7] is 3.28 µM; in assay [8], 4.48 µM; in assay [9], 2.99 µM. Further, the TGI in [10] is 90.8 µM; in assay [2], greater than 100 µM; in assay [3], greater than 100 µM; in [4] it was 8.37 µM; in assay [5], greater than 100 µM; in [6], 7.15 µM. The TGI in [7] was 9.51 µM; in assay [8], greater than 100 µM; in assay [9], 94.5 µM.

On to `COc1ncnc(NS(=O)(=O)c2ccc(N=C3C(=O)N(CN4CCN(c5c(F)cc6c(=O)c(C(=O)O)cn(C7CC7)c6c5OC)CC4C)c4ccc(Br)cc43)cc2)c1OC` (stereo unspecified), for which the GI50 is 11.3 µM in [10]; 6.4 µM in [1]; 9.96 µM in [2]; 1.69 µM in [3]; 31 µM in assay [4]; 5.58 µM in assay [5]. Besides, the values for the GI50 in assay [6], in [7] and in [8] were 20.8 µM, 20.5 µM and 9.41 µM, respectively. Also, the TGI in assay [10] was greater than 50 µM; in [1], 44.8 µM; in assay [2], greater than 50 µM; in [3] it was greater than 50 µM; in assay [4], greater than 50 µM; in assay [5] it was greater than 50 µM. Also, the TGI in [6], in assay [7] and in assay [8] was greater than 50 µM each time.

For `N#CC(c1ccccn1)c1nc2ccccc2[nH]1` (stereo unspecified), the TGI in assay [10], in [1], in assay [2], in assay [3], in assay [4] and in assay [5] was greater than 100 µM throughout. The TGI in assay [6], in [7] and in assay [8] was greater than 100 µM each time.
